Earlier results, collected in US8329187B2, “Compositions of spores of non pathogenic bacteria” (Neuroscienze Pharmaness S.C. A.R.L., priority 2009, dated 2012).

Tested on: gastrointestinal transit
Details: shown in example 6 of EP 1,602,658

Cc1c(C(=O)c2cccc3ccccc23)c2cccc3c2n1[C@H](CN1CCOCC1)CO3 [WIN 55.212-2]
effect on gastrointestinal transit (constipating activity): slackens the gastrointestinal transit
